Measurements taken from patent publication US20260021167A1, “COMPOSITIONS AND METHODS FOR TREATING OR PREVENTING NEURODEGENERATIVE DISEASES” (Delaware State University, priority 2022, published 2026).

Experiments:
[1] = system: TH+ dopaminergic neurons; test: Immunohistochemistry of TH staining in striatum and SNc of PFF-injected mice; format: in vivo, mouse
Protocol: (§1) A mouse model of Parkinson's disease is C57BL/6 male or female mice (50% each) injected with 5 μg of mouse PFF at 12 months old, followed by a treatment below for 6-7 weeks: • 1) without PFF injection, followed by vehicle (control, n=7); • 2) PFF injection, followed by vehicle (PFF only: control, n=8); • 3) PFF injection, followed by daily 10 mg/kg Momordin gavage (n=7-8); • 4) PFF injection, followed by daily 50 mg/kg Momordin gavage (n=7-8).
Immunohistochemistry. The serial coronal sections of the right hemisphere were collected throughout the striatum and substantia nigra. Each section with a thickness of 14 μm was mounted as a set of 5 onto positively charged slides (Midwest Sci, Valley Park, MO). The slides were kept at −80° C. until immunohistochemistry was performed. The sections were thawed at room temperature for 30 min, followed by a rehydration step in 0.1M PB for 10 min. The permeabilization step was performed using pre-chilled 100% acetone for 10 min. The excess acetone was dried, and permeabilization solution (40 µL Triton-X in 2% BSA) was added to the slides and kept aside for an additional 10 min. A blocking reagent containing 5% BSA in PB-T was given in the blocking step after drying the slides of excess permeabilization solution. The primary antibody was exposed under the coverslips to prevent the dehydration of the primary antibody. After the primary antibody (EMD Millipore-AB152) treatment at 4° C. overnight, the tissues were washed in PBS-T for 5 min three times. Then, slides were treated with a secondary antibody of Alexa-647-conjugated goat anti-rabbit (1:1000; Molecular Probes, Thermo Fisher Scientific) and incubated at room temperature for 2 h. The secondary antibody was washed in PBS-T for 3×5 min. Coverslips were mounted on slides using ProLong Diamond antifade mounting medium (Thermofisher, MA, USA). All images were captured using EVOS FL Cell Imaging Systems (Invitrogen), and every fifth section was analyzed for measuring the intensity of TH staining in the striatum and counting TH+ neurons in the SNc in a blinded manner. The same procedure was used for assessing the levels of phosphorylated Ser-129-α-synuclein (1:500, Cell signaling, cat #23706S) and protein aggregation using thioflavin-T (20 μM, Acros). Pictures for specific regions such as the striatum and ventral midbrain (vMB) were taken using confocal microscopy and stitched together to obtain a single image for representation purposes. The intensities were measured using ImageJ by a blinded rater.
Immunohistochemistry. The serial coronal sections of the right hemisphere were collected throughout the striatum and substantia nigra. Each section with a thickness of 14 μm was mounted as a set of 5 onto positively charged slides (Midwest Sci, Valley Park, MO). […]

[2] = system: PFF-injected mice; test: Behavioral tests overall in PFF-injected mice; format: in vivo, mouse; conditions: 10 or 50 mg/kg oral
Protocol: as §1
Behavioral tests were performed using the methods described in Ghosh et al. (Int J Mol Sci. 2022 Apr. 12; 23 (8): 4262) (FIG. 11A).

[3] = system: phosphorylated α-synuclein; test: Western blot of phosphorylated α-synuclein in α-synuclein IP tissue samples; format: in vivo, mouse; conditions: PFF-injected mice, vs PFF only
Protocol: A) In Western blots, Momordin reversed the toxicity from PFF injection in reducing phospho-α-synuclein and SENP-1 on α-synuclein in the MB and STR. […] A pathological marker, phosphorylated α-synuclein was increased by PFF injection, which was reversed by Momordin treatment in the MB (F) and the STR (G).
as §1

[4] = system: nigrostriatal neurons; test: ROS in nigrostriatal neurons of PFF-injected mice; format: in vivo; conditions: PFF injection, mouse brains
[5] = system: PFF-injected old mice; test: Rotarod in PFF-injected mice; format: in vivo, mouse; conditions: 10 and/or 50 mg/kg oral, vs PFF only
Protocol: as §1
Rotarod. Rotarod is a behavioral test used to measure motor functionality. For three consecutive days, all the mice were habituated on the rotating rod comprising a horizontal plane rotating at a speed of 4 rotations per minute (rpm), increasing by 2 rpm every minute for 10 min or until they fell off the rod at 20 rpm. The data were collected over three consecutive days where the animals were placed on the rod at 4 rpm, and the rod increased the speed by 1 rpm every 16 sec for 10 min or until the mouse fell off. A longer latency to fall indicates an improved motor functionality.

[6] = system: SUMO-1; test: Western blot of SUMO-1 level in PFF-exposed N27p cells; format: cell-based, rat; conditions: PFF exposure, compared with PFF only
Description: A) The RNA interference suppressed the expression level of SENP-1, which enhanced SUMO-1 level. […] One-Way ANOVA, Dunnett's test was applied for statistical analysis in comparison with PFF only (#). *: p<0.05, **: p<0.01, p<0.001 and n.s.: not significant.

CC1(C)CC[C@]2(C(=O)O)CC[C@]3(C)C(=CC[C@@H]4[C@@]5(C)CC[C@H](O[C@@H]6O[C@H](C(=O)O)[C@@H](O)[C@H](O[C@@H]7OC[C@@H](O)[C@H](O)[C@H]7O)[C@H]6O)C(C)(C)[C@@H]5CC[C@]43C)[C@@H]2C1 [Momordin lc]
recovery from damages in the striatum and Substantia Nigra compacta (SNc) ([1]; 50 mg/kg oral for 6-7 weeks, PFF-injected mice): effective | dopaminergic neuronal death / neuronal cell loss in mouse brains ([1]; PFF injection): reverse dopaminergic neuronal death | number of TH+ dopaminergic neurons in the SNc ([1]; both doses (10 and 50 mg/kg) oral for 6-7 weeks, PFF-injected mice, vs PFF only): significantly recovered | intensity of TH+ label in the striatum ([1]; oral treatment for 6-7 weeks, PFF-injected mice, vs PFF only): improves the intensity of TH+ label | behavioral / motor deficits derived from PFF injection [2]: improved the behavioral deficits | behavioral / motor deficits derived from PFF injection ([2]; listed as Momordin): alleviates severe motor deficits | phosphorylated α-synuclein in the MB (α-synuclein IP) ([3]; midbrain): reversed | phosphorylated α-synuclein in the STR (α-synuclein IP) ([3]; striatum): reversed | level of ROS in nigrostriatal neurons [4]: alleviated the level of ROS | mobility on rotarod [5]: enhances the mobility on rotarod | level of SUMO-1 (Western blot) [6]: increased level of SUMO-1
